pIC50: −log10 of the molar value. Where no end group is shown, it is not given here.
How the values were obtained:
[1] = target: T1, PTH/PTHrP receptor (Homo sapiens, UniProt Q03431); assay: Competition radioligand binding, COS-7 cells transfected with human PTH/PTHrP receptor; details: for Binding affinity, fold weaker than PTH-(1-34): PTH/PTHrP receptor; for Binding in words, PTH/PTHrP receptor: competition with radioligand
T1 construct: expressed in transfected cells; host or cells: COS-7 cells, transient transfection, vector pcDNA-1
T1 sequence (Q03431 27-593): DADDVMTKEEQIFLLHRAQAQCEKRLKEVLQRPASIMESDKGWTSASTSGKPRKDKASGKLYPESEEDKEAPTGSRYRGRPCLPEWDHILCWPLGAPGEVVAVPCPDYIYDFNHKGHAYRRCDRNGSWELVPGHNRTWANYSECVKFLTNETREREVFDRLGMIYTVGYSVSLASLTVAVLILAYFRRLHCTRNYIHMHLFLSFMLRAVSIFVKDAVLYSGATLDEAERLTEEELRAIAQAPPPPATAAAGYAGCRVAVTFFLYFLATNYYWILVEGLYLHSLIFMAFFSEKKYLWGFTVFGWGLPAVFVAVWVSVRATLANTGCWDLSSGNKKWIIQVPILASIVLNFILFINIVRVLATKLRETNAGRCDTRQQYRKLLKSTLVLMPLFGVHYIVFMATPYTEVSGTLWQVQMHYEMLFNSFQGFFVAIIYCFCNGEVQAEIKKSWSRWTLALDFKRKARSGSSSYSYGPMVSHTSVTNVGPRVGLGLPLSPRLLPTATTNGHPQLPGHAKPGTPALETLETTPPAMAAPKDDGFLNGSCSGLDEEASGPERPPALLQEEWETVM
Procedure: (§1) The cDNAs encoding the human PTH/PTHrP receptor (Schipani, E. et al., Endocrinology 132:2157-2165 (1993)) and the human PTH-2 receptor (Usdin, T. et al., J. Biol. Chem. 270:15455-15458 (1995)) were carried on the expression vectors pcDNA-1 and pcDNAI/Amp (InVitrogen, San Diego, Calif.), respectively. COS-7 cells were cultured and transfected as described previously (Lee, C. et al., Mol. Endocrinol. 9:1269-1278 (1995)). Cells were transfected in 24-well plates using plasmid DNA (200 ng/well) purified by cesium chloride/ethidium bromide gradient centrifugation. Ligand binding and cAMP accumulation assays were performed three days after transfection, by which time the cell density reached 500,000±100,000 cells/well.
(§2) Binding reactions were performed as described previously. Id. Each well (final volume: […]) contained 26 fmole of ^125I-[Nle^8,21,Tyr^34]rPTH(1-34)NH2 (100,000 CPM) and various amounts (0.4-300 pmole) of an unlabeled competitor ligand, both diluted in binding buffer (50 mM Tris-HCl, pH 7.7, 100 mM NaCl, 5 mM KCl, 2 mM CaCl, 5% heat-inactivated horse serum, 0.5% heat-inactivated fetal bovine serum). Incubations were at room temperature for 2 hours, except for experiments involving Scatchard analysis, which were performed at 4° C. for 6 hours. At the end of the binding reaction, the cells were rinsed 3 times with 0.5 ml of binding buffer, lysed with 0.5 ml of 5M NaOH, and the entire lysate was counted. Nonspecific binding of tracer (NSB), determined in wells containing 1 μM of [NleTyr^8,21,Tyr^34]rPTH-(1-34)NH2, was ˜1% of total counts added. Maximum specific binding (B0) was calculated as the total radioactivity bound to cells in the absence of unlabeled PTH ligand, minus NSB. […] For Scatchard analyses, homologous competition binding studies were performed that used ^125I-[-NleTyr^8,21,Tyr^34]rPTH-(1-34)NH2 (26 fmole/well) and varying amounts (1.2-300 pmol) of the same unlabeled ligand. Estimates of the number of receptors/cell derived from these studies assumed a single class of binding sites and a transfection efficiency of 20% (Abou-Samra, A. B. et al., Proc. Natl. Acad. Sci (USA) 89:2732-2736 (1992)).

[2] = target: T2, PTH-2 receptor (Homo sapiens, UniProt P49190); assay: Competition radioligand binding, COS-7 cells transfected with human PTH-2 receptor; details: for Binding in words, PTH-2 receptor: competition with radioligand
T2 construct: expressed in transfected cells; host or cells: COS-7 cells, transient transfection, vector pcDNAI/Amp
T2 sequence (P49190 25-550): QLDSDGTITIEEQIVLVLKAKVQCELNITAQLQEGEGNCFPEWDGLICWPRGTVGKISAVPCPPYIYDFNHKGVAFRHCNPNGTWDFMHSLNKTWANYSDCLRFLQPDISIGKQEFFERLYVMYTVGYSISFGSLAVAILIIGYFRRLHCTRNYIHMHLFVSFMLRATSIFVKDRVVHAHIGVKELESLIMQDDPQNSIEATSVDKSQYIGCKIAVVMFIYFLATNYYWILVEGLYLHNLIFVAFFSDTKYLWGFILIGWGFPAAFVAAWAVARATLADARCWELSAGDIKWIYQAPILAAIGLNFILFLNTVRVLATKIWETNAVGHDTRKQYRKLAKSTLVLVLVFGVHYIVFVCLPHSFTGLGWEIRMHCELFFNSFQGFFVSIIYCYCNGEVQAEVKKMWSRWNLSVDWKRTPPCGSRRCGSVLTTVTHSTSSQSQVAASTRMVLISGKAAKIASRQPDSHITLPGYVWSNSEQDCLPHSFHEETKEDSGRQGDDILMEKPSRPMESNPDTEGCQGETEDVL
Procedure: as §1, §2

[3] = target: T1, PTH/PTHrP receptor; assay: Ligand-induced intracellular cAMP accumulation, COS-7 cells expressing human PTH/PTHrP receptor; type: cell-based; details: for cAMP accumulation Maximum, PTH/PTHrP receptor: highest level of cAMP attained, basal 4.6 ± 0.2 not subtracted, 1h at room temperature; for cAMP agonist activity in words, PTH/PTHrP receptor: COS-7 cells
Procedure: as §1
(§3) Transfected COS-7 cells were rinsed with […] of binding buffer. 200 μl of IBMX buffer (DMEM containing 2 mM IBMX, 1 mg/ml bovine serum albumin, 35 mM Hepes-NaOH, pH 7.4) and […] of binding buffer or binding buffer containing various amounts of a PTH or PTHrP analog were then added. The plates were incubated for 60 minutes at room temperature. The buffer was then withdrawn and the cells lysed by placing the plates on powdered dry ice and adding 0.5 ml of 50 mM HCl. The acid lysate was diluted 1/30 in dH2O, and an aliquot (5-50 μl) analyzed for cAMP content by radioimmunoassay. […] The cells were then incubated for 30 minutes at room temperature, and the resulting intracellular cAMP was measured by RIA. Data were analyzed using the AssayZap software (Elsevier Science Publishers BV, Cambridge, United Kingdom).

[4] = target: T2, PTH-2 receptor; assay: Ligand-induced intracellular cAMP accumulation, COS-7 cells expressing human PTH-2 receptor; type: cell-based; details: for cAMP agonist activity in words, PTH-2 receptor: COS-7 cells; for cAMP accumulation Maximum, PTH-2 receptor: highest level of cAMP attained, basal 5.4 ± 0.3 not subtracted, 1h at room temperature
Procedure: as §1, §3

[5] = COS-7 cells, radioligand 125I-[Nle8,21,Y34]rPTH-(1-34)NH2, 2 hours at room temperature, mean ± s.e.m.

| Substance | cAMP accumulation Maximum, PTH/PTHrP receptor [3] [pmoles/well] | cAMP agonist activity in words, PTH-2 receptor [4] | cAMP accumulation Maximum, PTH-2 receptor [4] [pmoles/well] | also measured |
| --- | --- | --- | --- | --- |
| LNSMERVEFLRKKLQDVHNY-NH2 [[F23, Y34]hPTH-(15-34)NH2] | – | – | – | pIC50 [1, 5]: < 5.00; pIC50 [2, 5]: < 5.00 |
| [H5, F23, Y34]hPTH-(1-34)NH2 | 110 ± 19 | – | 7.1 ± 0.9 | – |
| [Ile^5, Trp^23]PTHrP-(1-36) [[15, W23, Y36]hPTHrP-(1-36)NH2] | 109 ± 10 | as potent and efficacious as PTH-(1-34) | 65 ± 7 | – |
| [Ile^5]PTHrP-(1-36) [[15, Y36]hPTHrP-(1-36)NH2] | – | full agonist | 80 ± 5 | cAMP EC50, fold higher than that of PTH-(1-34) ([4]; PTH-2 receptor): 12 fold |
| [Tyr^36]hPTHrP-(1-36)NH2 [[Y36]hPTHrP-(1-36)NH2, reference compound] | – | nearly inactive | 11 ± 1 | Binding affinity, fold weaker than PTH-(1-34) [1]: six-fold weaker binding; Binding in words, PTH/PTHrP receptor ([1]; COS-7 cells): fully inhibited binding of the radioligand; Binding potency, fold weaker than PTH-(1-34) ([2]; PTH-2 receptor): more than 100 fold; Binding in words, PTH-2 receptor ([2]; COS-7 cells): bound poorly; cAMP agonist activity in words, PTH/PTHrP receptor [3]: full and potent agonists |
| [Y36]hPTHrP-(15-36)NH2 | – | – | – | Binding in words, PTH-2 receptor ([2]; COS-7 cells): competed weakly |
| hPTHrP-(1-23)/[Y34]hPTH-(24-34)NH2 [Hybrid 3] | 95 ± 9 | – | 11 ± 1 | – |
| hpTHrP-(1-14)/[Y34]hPTH-(15-34)NH2 [Hybrid-1] | 140 ± 17 | weak activity | 5.3 ± 0.6 | – |

More lines, main results first:

| cAMP accumulation Maximum, PTH/PTHrP receptor [3] [pmoles/well] | cAMP agonist activity in words, PTH-2 receptor [4] | cAMP accumulation Maximum, PTH-2 receptor [4] [pmoles/well] | Substance | also measured |
| --- | --- | --- | --- | --- |
| 104 ± 16 | nearly a full agonist | 50 ± 8 | [F23, Y34]hPTH-(1-34)NH2 | Binding affinity, fold weaker than PTH-(1-34) [1]: 2-3 fold; Reduction in binding potency compared to unsubstituted PTH-(1-34) ([2]; PTH-2 receptor): 28 fold |
| 116 ± 19 | – | 10 ± 1 | [H5, Y34]hPTH-(1-34)NH2 | Binding in words, PTH/PTHrP receptor ([1]; COS-7 cells): competed very poorly; cAMP agonist activity in words, PTH/PTHrP receptor [3]: efficiently stimulated cAMP formation |
| 123 ± 28 | – | – | hPTH-(1-14)/[Y34]hPTHrP-(15-34)NH2 [Hybrid-2] | – |
| 107 ± 17 | – | 6.7 ± 0.6 | hPTHrP-(1-21)/[Y34]hPTH-(22-34)NH2 [Hybrid-4] | – |

— patent US6362163B1, “Parathyroid hormone-related peptide analogs” (The General Hospital Corporation, priority 1996, dated 2002)
